Our source for the melting point values is a melting point compilation (Tetko et al.; mined from patent text by program, amines drawn as free bases though some values may be those of a salt).

Turning to `O=C(NCCCN1CCC(c2ccccc2)(c2ccccc2)CC1)N1CCOCC1c1ccc(F)c(F)c1` (stereo not given), the melting point (usually the temperature, or range, at which the solid turns liquid) is 71 to 74 °C.

The compound `O=S1(=O)c2cccc3cccc(c23)N1CCN1CCC(CC2Cc3ccccc3C2)CC1` gave a melting point of 126 °C.

As to `CCC(=O)NS(=O)(=O)c1cccc(-c2cccc(-c3cc(-c4ccc(C(F)(F)F)cc4)cc(C)n3)n2)c1`, the melting point amounted to 173 °C.

Compound `CC1CC2=CC(=O)CCC2C2CCC3(C)C(C=O)CCC3C12` (stereo not given) gave a melting point of 207 to 230 °C.

In turn, `O=C(O)CCc1cc2cc(Cl)ccc2n1S(=O)(=O)c1ccc2ncsc2c1` yielded a melting point of 96 to 100 °C.

Regarding `COC(=O)c1sc2ccc(NC=O)cc2c1N`, the melting point lay within 202 to 204 °C.

On to `O=c1oc(=O)n(Cc2ccccc2)c2ccc(F)cc12`, for which the melting point stood at 95 °C.

`Cn1c(-c2cc(C(C)(C)C)c(O)c(C(C)(C)C)c2)n[nH]c1=O` registered a melting point of 308 to 312 °C.

Take `COCCn1nc2c(N)nc3ccccc3c2c1CC(C)(C)N`: the melting point was in the range of 199 to 200 °C.

The compound `Cc1oc(-c2ccccc2)nc1CCOc1ccc(C=CC=C2OC(=O)NC2=O)cn1` displayed a melting point of 204 to 205 °C.

With `COc1cc2c(cc1OC)CN(CCCOc1ccc(NC(=O)c3cccc4c(=O)c5cccc(OC)c5[nH]c34)cc1)CC2`, the melting point amounted to 190 °C.

`CC(C(=O)Oc1cc(=O)n(-c2cccc(OC(F)(F)F)c2)c2ncccc12)c1ccccc1` (stereo not given) showed a melting point of 115 to 117 °C.

Take `O=C(Cc1ccccc1)NC1C(=O)N2CC(C(=O)OCc3ccccc3)SC12` (stereo not given): the melting point fell in the range of 130 to 132 °C.

Turning to `CCCCCCCCCCOc1ccc(CC(C)NCC(O)c2cccc(Cl)c2)cc1` (stereo not given), the melting point was in the range of 59 to 61 °C.

In turn, `CS(=O)(=O)c1ccc(-c2cnn(-c3cccc(Cl)c3)c(=O)c2Oc2cccc(F)c2)cc1` gave a melting point of 178 to 180 °C.

`Cc1ccccc1-c1ccc(C(=O)N2Cc3ccc(C(=O)CCc4cccnc4)n3Cc3ccccc32)cc1` yielded a melting point of 135 to 136 °C.

With `CCOC(=O)c1cnn(-c2ccccc2Oc2ccc(C)cc2O)c1`, the melting point lay within 118 to 119 °C.

For `CCC(C)CNC(=S)NS(=O)(=O)c1sc(Cl)cc1N` (stereo not given), the melting point lay in the range of 116 to 118 °C.

The compound `COc1ccc(CN(CCN(C)CCCCNC(=O)NCCCOc2cccc(CN3CCCCC3)c2)c2ccccn2)cc1` yielded a melting point of 68 to 72 °C.

Take `Cc1ccc(S(=O)(=O)NC(=O)C(Cl)Cc2cc(-n3nc(C)n(C(F)F)c3=O)c(F)cc2Cl)cc1` (stereo not given): the melting point is 267 to 269 °C.

As to `CCOC(=O)c1c(CSc2nccn2CC)nc2cc(OC)c(OC)cc2c1-c1ccc(OC)c(OC)c1`, the melting point is 157 to 158 °C.

For the compound `COc1cc(O)cc(Cc2cnc(N)nc2N)c1`, the melting point fell in the range of 246 to 248 °C.

`C1CNCCNCCNCCNCCN1`: the melting point lay in the range of 92 to 103 °C.

For the compound `CC1(C)CCc2c(-c3ccoc3)nc3sc4c(NCc5ccncc5)ncnc4c3c2C1`, the melting point was in the range of 265 to 266 °C.

`Cc1nc(-c2ccccc2)cc(-c2cccc([N+](=O)[O-])c2)c1C(=O)NCCN1CCOCC1` yielded a melting point of 141 to 142 °C.

`O=c1c(Cl)c(Cl)cnn1-c1cc([N+](=O)[O-])c(Cl)cc1F`: the melting point is 168 °C.

Turning to `O=C(O)C1=Cc2cc(-c3ccc(C(F)(F)F)cc3)ccc2S(=O)(=O)CC1`, the melting point is greater than 300 °C.

`CC(C=CC=C(C)C=CC1C(C)=CC(=O)CC1(C)C)=CC=CC=C(C)C=CC=C(C)C=CC1C(C)=CC(=O)CC1(C)C` (stereo not given): the melting point fell in the range of 185 to 187 °C.

With `C[C@@H](C(=O)O)N(C)C(=O)c1cc(C(F)(F)F)cc(N)c1N`, the melting point was found to be 96 °C.

Compound `O=C(C=Cc1ccccc1)Nc1ccc(C(c2ccc(Cl)cc2)n2ccnc2)cc1` (stereo not given) showed a melting point of 244 °C.

For the compound `O=C(NCc1cncc(F)c1)c1ccc(S(=O)(=O)n2cc(-c3ccccc3)c3ccccc32)cc1`, the melting point is 131 °C.

Regarding `COCCc1nc2c(N)nc3cc(OCc4ccccc4)ccc3c2n1CCCCNC(N)=O`, the melting point fell in the range of 170 to 171 °C.

`Cc1nc2sc([N+](=O)[O-])cc2c(=O)n1-c1ccc([N+](=O)[O-])cc1Cl` had a melting point of 166 to 168 °C.

With `OCCC#CC1CCC(COc2ccc(F)cc2)O1` (mixture of isomers), the melting point came to 76 °C.

`O=C(NC1CCN(CCC2CCOc3ccccc32)CC1)C1CCc2ccccc2C1` (stereo not given) had a melting point of 130 to 132 °C.

Compound `Cc1[nH]c(=O)c(C#N)cc1C(=O)n1ccnc1` yielded a melting point of 237 to 238 °C.

Compound `Cc1ccc(CCc2cc(Br)c3nc(N)sc3c2)nc1` yielded a melting point of 216 to 218 °C.

Consider `COc1cn(-c2ccc(OC(F)(F)F)cc2F)nc(-c2ccnn2-c2ccccc2)c1=O`, for which the melting point fell in the range of 117 to 118 °C.

For the compound `CS(=O)(=O)c1cccc(Cn2ccc(OCc3ccc(F)cc3F)c(Cl)c2=O)c1`, the melting point is 155 to 157 °C.

`CCCCCCCCCCOc1ccc(CO)cc1OCCCCCCCCCC`: the melting point was in the range of 41 to 42.5 °C.

Consider `CCOC(=O)C1=C(C(=O)OC)CC(=O)C2=C1SC=C1C=CC=CN12`, for which the melting point is 143 to 144 °C.

Regarding `N#Cc1cc(NC(=O)c2cc3ccccc3s2)ccc1N1CCCCC1`, the melting point fell in the range of 219 to 245 °C.

`Cn1nnc(-c2ccc(C=O)cc2)n1` registered a melting point of 137 to 139 °C.

As for `CC(C)(C)C(=O)Nc1ccccn1`, the melting point was in the range of 74 to 76 °C.

The compound `CCc1nc2c(OCc3ccc(OC)cc3)cccc2[nH]1` showed a melting point of 73.8 to 77.9 °C.

`COc1ccc(Br)c(C(=O)N2CCN(S(=O)(=O)c3ccc(Cl)cc3)CC2)c1` registered a melting point of 188 °C.

Consider `COc1ccc(C(=O)c2cccc(OCc3nc(-c4ccccc4)oc3C)c2)c(OCC(=O)O)c1`, for which the melting point lay in the range of 198 to 199 °C.

The compound `COc1ccc(CC(=O)c2cccnc2)cc1OC` showed a melting point of 188 to 191 °C.

Compound `COc1cc2nc(N3CCC(N4C(=O)C(C)C(C)C4=O)CC3)nc(N)c2cc1OC` (stereo not given) yielded a melting point of 267 to 268 °C.

For the compound `Cc1c(F)ccc(C(=O)O)c1F`, the melting point was in the range of 168 to 170 °C.

On to `COC(=O)c1cc2cc(OC(F)(F)F)ccc2[nH]1`, for which the melting point is 129 °C.

Regarding `CC(C)(C)c1cnc(C(=O)Nc2cc(-c3cc(Nc4ccc(-c5ccncc5)nn4)c(=O)[nH]n3)ccc2F)cn1`, the melting point was greater than 300 °C.

Consider `Cc1cc(C)nc(NC(=O)C(N)Cc2ccccc2)c1` (stereo not given), for which the melting point worked out at 97 °C.

`Cc1cc(-c2nc(COc3ccc(CCCCn4ccnc4)cc3)co2)sc1Br` displayed a melting point of 85 to 86 °C.

In turn, `CCN1C(=O)C(NC(=O)C(F)(F)F)CCc2c1ccc(Nc1ncc(Cl)c(Nc3ccccc3S(=O)(=O)C(C)C)n1)c2OC` (stereo not given) came in with a melting point of 245 to 247 °C.

For the compound `COc1ccc(CN2C(=O)C3(COc4cc5c(cc43)OCCO5)c3ccccc32)cn1` (stereo not given), the melting point lay in the range of 161 to 162 °C.

In turn, `CC(C)(C)NC(=O)NN1CC=CCC1` had a melting point of 156 °C.

For the compound `CCCCCCNc1ccc([N+](=O)[O-])cc1C(=O)O`, the melting point fell in the range of 161 to 163 °C.

On to `ClCc1ccccc1-c1ccccc1-c1ccccc1CCl`, for which the melting point was in the range of 189 to 190 °C.

`COc1ccc(/C=C/c2nc3c([nH]2)c(=O)n(C)c(=O)n3C)c(OC)c1` returned a melting point greater than 280 °C.

For `CCNC(=O)N1c2ccccc2CCC1CN1CCN(c2cccc3[nH]ccc23)CC1` (stereo not given), the melting point was 109 to 112 °C.

Compound `COc1ccc(NC(=O)NCc2cccc3c2CN(C2CCC(=O)NC2=O)C3=O)cc1` (stereo not given) gave a melting point of 320 to 322 °C.

`Cc1ccc2cccc(OCc3c(Cl)ccc(N4CC(=O)NCC4=O)c3Cl)c2n1` registered a melting point of 211 to 213 °C.

The compound `COC(=O)C(O)CCN1C(=O)c2ccccc2C1=O` (stereo not given) yielded a melting point of 123 to 124 °C.

Consider `O=C(O)C1CCCN(C(=O)COC2CCN(C(=O)OCc3ccccc3)CC2)C1` (stereo not given), for which the melting point fell in the range of 102 to 104 °C.

In turn, `CC(=Cc1ccc(OCc2cccc(Cl)c2)cc1)[N+](=O)[O-]` came in with a melting point of 117 to 118 °C.

Take `O=C(NNc1ccc(NC(=S)Nc2ccccc2)cc1)c1ccccc1`: the melting point lay within 149 to 151 °C.

In the case of `O=C(Nc1cccc(-c2ccnc3c(C(=O)c4cccs4)cnn23)c1)OCc1ccccn1`, the melting point lay in the range of 121 to 125 °C.

Compound `CN(C)Cc1cc(Oc2ccc3c(C(=O)Nc4cccc(C(F)(F)F)c4)cccc3c2)ncn1` came in with a melting point of 180 to 181 °C.

`CCOC1=CC2=CCC3C4CC(C)(C)C(=O)C4(C)CCC3C2(C)CC1` (stereo not given): the melting point fell in the range of 133 to 137 °C.

With `N[C@H](C(=O)O)c1ccc(OCCOC2CCCCC2)cc1`, the melting point is 219 to 220 °C.

For the compound `O=C1COCC2=C1C(c1ccc(F)c(Br)c1)C1=C(CNC1=O)N2` (stereo not given), the melting point was greater than 260 °C.

`CC(C)OC(=O)OC1Oc2ccc(OS(=O)(=O)N(C)C)cc2C1(C)C` (stereo not given) displayed a melting point of 95 to 96 °C.

`CCC1=C(C#N)C(c2cccc(C#N)c2Cl)c2c[nH]nc2N1` (stereo not given) registered a melting point greater than 300 °C.

In turn, `N#CCCN(N)c1nc2ccccc2s1` showed a melting point of 111 to 113 °C.

For the compound `CCOC(=O)N(c1ccccc1)c1cc(Cl)ccc1N=NC(NC(=O)CCl)(C(=O)OCC)C(=O)OCC`, the melting point fell in the range of 105 to 110 °C.

Consider `Clc1ccc(CNc2ccccc2-n2ccnc2)c(Cl)c1`, for which the melting point lay within 100 to 103 °C.

In turn, `CC(C(=O)N(C)C)n1cc(Cl)c(-c2ccc(Cl)cc2)n1` (stereo not given) showed a melting point of 92 to 93.5 °C.

For the compound `N#CCCOC(=O)C=C1C=C(c2ccccc2)S(=O)(=O)C(c2ccccc2)=C1`, the melting point fell in the range of 156 to 157 °C.

`CCN(CC)C(=O)NC1CC2c3cccc4[nH]c(C#Cc5cccs5)c(c34)CC2N(C)C1` (stereo not given) came in with a melting point of 252 to 256 °C.

With `Cn1ccnc1Sc1ccc(Cl)cc1N`, the melting point lay within 127 to 129 °C.

`COc1ccc(N2CCOCC2)c2sc(C(=O)O)nc12` registered a melting point of 99 to 100 °C.

With `CNN1c2c(cc(Oc3ccc(F)cc3F)c(=O)n2NC)C=NC1S(=O)Cc1ccccc1` (stereo not given), the melting point is 80.5 to 89.9 °C.

For `COc1ccc(C=CC(=O)N2CCc3c([nH]c4ccccc34)C2c2ccc3c(c2)OCO3)cc1OC` (stereo not given), the melting point is 233 °C.

Regarding `O=C(Sc1ccccc1)c1cc2cc(CCl)ccc2oc1=O`, the melting point fell in the range of 164 to 166 °C.
